In patent publication US20220064214A1, “NOVEL PEPTIDES AND USES THEREOF” (CENNA BIOSCIENCES INC., priority 2019, published 2022):
Like-named read-outs stand apart in the source and are kept apart here. Square brackets hold non-standard residues; d marks the D form. Peptide text beside a SMILES is read from it.

Key:
[1] = PK analysis of 8M2D in transgenic mice (APPSWE), plasma; conditions: mouse, in vivo, sc
Text: Pharmacokinetics (PK) of 8M2D was further analyzed with various doses at days 1 and 13 in transgenic mice (APPSWE (B6; SJL 2576 Kha; Taconic)). See Hsiao et al., Correlative memory deficits, Aβ elevation, and amyloid plaques in transgenic mice. Science 274:99-102 (1996); and Haugabook et al., Reduction of Abeta accumulation in the Tg2576 animal model of Alzheimer's disease after oral administration of the phosphatidyl-inositol kinase inhibitor wortmannin. Faseb J 15:16-18 (2001).

Aß = experiment: Efficacy in reducing Aß in APP transgenic mice (analysis in CSF and brain); assay type: in vivo; conditions: Tg mice over-expressing Aß
Experimental: Critical to the development of any therapeutic for diseases like AD is the requirement that it can be delivered to the brain. Delivery to brain and efficacy of P8 and 8M2D in reducing Aß was analyzed in the transgenic mice described in Section 6.3 above.
The maximum efficacious dose of 8M2D in Tg mice over-expressing Aß is at just over 50 mg/kg. This gives a 65% reduction in Aß 42. […] Experiments are performed to establish the minimum efficacious dose in Tg mice.

`CC(=O)N[C@H](CC(=O)O)C(=O)N[C@@H](CCC(=O)O)C(=O)N[C@@H](CCC(=O)O)C(=O)N[C@@H](CCC(=O)O)C(=O)N[C@@H](CC(=O)O)C(=O)N[C@@H](CCC(=O)O)C(=O)N[C@@H](CCC(=O)O)C(=O)N[C@@H](CC(C)C)C(N)=O` [8M2D, Ac-dEEEDEEL-NH2] (Ac-[dD]EEEDEEL-NH2) gave an AUC(0-t) ([1]; 10 mg/kg, Day 1, 10 mg/kg, read-out: AUClast) of 12800 ng·h/mL, a CL/F ([1]; 10 mg/kg, Day 1, 10 mg/kg, read-out: Cl/F) of 13 mL/min/kg and a Cmax ([1]; 10 mg/kg, Day 1, 10 mg/kg, read-out: Cmax) of 14.4 µg/mL. For the same compound, the Tmax ([1]; 10 mg/kg, Day 1, 10 mg/kg, read-out: Tmax) was 0.17 h, the Vd/F ([1]; 10 mg/kg, Day 1, 10 mg/kg, read-out: Vz/F) was 8.84 L/kg and the half-life ([1]; 10 mg/kg, Day 1, 10 mg/kg, read-out: t1/2 (converted)) was 7.9 h. For the same compound, the AUC(0-t) ([1]; 10 mg/kg, Day 13, 10 mg/kg, read-out: AUClast) was 11600 ng·h/mL, the CL/F ([1]; 10 mg/kg, Day 13, 10 mg/kg, read-out: Cl/F) was 14.1 mL/min/kg and the Cmax ([1]; 10 mg/kg, Day 13, 10 mg/kg, read-out: Cmax) was 12.4 µg/mL. For the same compound, the Tmax ([1]; 10 mg/kg, Day 13, 10 mg/kg, read-out: Tmax) was 0.17 h, the Vd/F ([1]; 10 mg/kg, Day 13, 10 mg/kg, read-out: Vz/F) was 10.2 L/kg and the half-life ([1]; 10 mg/kg, Day 13, 10 mg/kg, read-out: t1/2 (converted)) was 8.4 h. For the same compound, the AUC(0-t) ([1]; 50 mg/kg, Day 1, 50 mg/kg, read-out: AUClast) was 70500 ng·h/mL, the CL/F ([1]; 50 mg/kg, Day 1, 50 mg/kg, read-out: Cl/F) was 11.8 mL/min/kg and the Cmax ([1]; 50 mg/kg, Day 1, 50 mg/kg, read-out: Cmax) was 111 µg/mL. The Tmax ([1]; 50 mg/kg, Day 1, 50 mg/kg, read-out: Tmax) was 0.17 h, the Vd/F ([1]; 50 mg/kg, Day 1, 50 mg/kg, read-out: Vz/F) was 7.59 L/kg and the half-life ([1]; 50 mg/kg, Day 1, 50 mg/kg, read-out: t1/2 (converted)) was 7.4 h. It also gave an AUC(0-t) ([1]; 50 mg/kg, Day 13, 50 mg/kg, read-out: AUClast) of 49700 ng·h/mL, a CL/F ([1]; 50 mg/kg, Day 13, 50 mg/kg, read-out: Cl/F) of 12.9 mL/min/kg and a Cmax ([1]; 50 mg/kg, Day 13, 50 mg/kg, read-out: Cmax) of 73 µg/mL. It also gave a Tmax ([1]; 50 mg/kg, Day 13, 50 mg/kg, read-out: Tmax) of 0.17 h, a Vd/F ([1]; 50 mg/kg, Day 13, 50 mg/kg, read-out: Vz/F) of 148 L/kg and a half-life ([1]; 50 mg/kg, Day 13, 50 mg/kg, read-out: t1/2 (converted)) of 130 h. The AUC(0-t) ([1]; 250 mg/kg, Day 1, 250 mg/kg, read-out: AUClast) was 176000 ng·h/mL, the CL/F ([1]; 250 mg/kg, Day 1, 250 mg/kg, read-out: Cl/F) was 23.6 mL/min/kg and the Cmax ([1]; 250 mg/kg, Day 1, 250 mg/kg, read-out: Cmax) was 207 µg/mL. The Tmax ([1]; 250 mg/kg, Day 1, 250 mg/kg, read-out: Tmax) was 0.17 h, the Vd/F ([1]; 250 mg/kg, Day 1, 250 mg/kg, read-out: Vz/F) was 5.84 L/kg and the half-life ([1]; 250 mg/kg, Day 1, 250 mg/kg, read-out: t1/2 (converted)) was 2.9 h. For the same compound, the AUC(0-t) ([1]; 250 mg/kg, Day 1, Mean over the 10, 50 and 250 mg/kg doses (N 3), read-out: AUClast, Mean) was 86400 ng·h/mL, the CL/F ([1]; 250 mg/kg, Day 1, Mean over the 10, 50 and 250 mg/kg doses (N 3), read-out: Cl/F, Mean) was 16.1 mL/min/kg and the Cmax ([1]; 250 mg/kg, Day 1, Mean over the 10, 50 and 250 mg/kg doses (N 3), read-out: Cmax, Mean) was 111 µg/mL. For the same compound, the Tmax ([1]; 250 mg/kg, Day 1, Mean over the 10, 50 and 250 mg/kg doses (N 3), read-out: Tmax, Mean) was 0.167 h, the Vd/F ([1]; 250 mg/kg, Day 1, Mean over the 10, 50 and 250 mg/kg doses (N 3), read-out: Vz/F, Mean) was 7.42 L/kg and the half-life ([1]; 250 mg/kg, Day 1, Mean over the 10, 50 and 250 mg/kg doses (N 3), read-out: t1/2, Mean (converted)) was 6.06 h. It also gave an AUC(0-t) ([1]; 250 mg/kg, Day 13, 250 mg/kg, read-out: AUClast) of 290000 ng·h/mL, a CL/F ([1]; 250 mg/kg, Day 13, 250 mg/kg, read-out: Cl/F) of 13.5 mL/min/kg and a Cmax ([1]; 250 mg/kg, Day 13, 250 mg/kg, read-out: Cmax) of 278 µg/mL. It also gave a Tmax ([1]; 250 mg/kg, Day 13, 250 mg/kg, read-out: Tmax) of 0.17 h, a Vd/F ([1]; 250 mg/kg, Day 13, 250 mg/kg, read-out: Vz/F) of 33.4 L/kg and a half-life ([1]; 250 mg/kg, Day 13, 250 mg/kg, read-out: t1/2 (converted)) of 29 h. For the same compound, the AUC(0-t) ([1]; 250 mg/kg, Day 13, Mean over the 10, 50 and 250 mg/kg doses (N 3), read-out: AUClast, Mean) was 117000 ng·h/mL, the CL/F ([1]; 250 mg/kg, Day 13, Mean over the 10, 50 and 250 mg/kg doses (N 3), read-out: Cl/F, Mean) was 13.5 mL/min/kg and the Cmax ([1]; 250 mg/kg, Day 13, Mean over the 10, 50 and 250 mg/kg doses (N 3), read-out: Cmax, Mean) was 121 µg/mL. For the same compound, the Tmax ([1]; 250 mg/kg, Day 13, Mean over the 10, 50 and 250 mg/kg doses (N 3), read-out: Tmax, Mean) was 0.167 h, the Vd/F ([1]; 250 mg/kg, Day 13, Mean over the 10, 50 and 250 mg/kg doses (N 3), read-out: Vz/F, Mean) was 63.8 L/kg and the half-life ([1]; 250 mg/kg, Day 13, Mean over the 10, 50 and 250 mg/kg doses (N 3), read-out: t1/2, Mean (converted)) was 56.5 h. The “efficacy on increasing the dose 5× (in words)” value (Aß; SC) was “only a marginal increase in efficacy”, the maximum efficacious dose (Aß; SC dosing) was “over 50 mg/kg” and the “reduction in Aß 42” value (Aß; SC, at the maximum efficacious dose (just over 50 mg/kg)) was 65%.
